From the supplement of paper PMC11451515

Assays:
Conditions in all cases: 48 h
[1] = tested on: NOMO1; assay: cell viability relative to DMSO control; higher = less cytotoxic
Summary of the method: (§1)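 NOMO1 or SEM cells were plated at 500 cells/well and P12-Ichikawa cells at 1000 cells/well in 1536-well plates (5 μl), after each leukemia line had been adapted for at least four passages in each medium. Pin dosing delivered library compounds in DMSO at 11 threefold concentrations, 47 μM to 0.79 nM. CellTiter-Glo One luminescence was read after 48 h at 37°C. Viability is reported as a per-plate percentage of DMSO wells, with cell-free wells as background.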

[2] = tested on: P12-Ichikawa; assay: as above
Summary of the method: as §1

[3] = tested on: SEM cells; assay: as above
Summary of the method: as §1

[4] = tested on: P12-Ichikawa; assay: AUC of viability dose-response curve (% viability x log10 dose units); higher = less sensitive
Summary of the method: (§2)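 Seeding of medium-adapted leukemia cells was at 500 or 1000 cells/well in 1536-well plates, followed by 48 h at 37°C with library compounds in DMSO at 11 threefold doses from 47 μM to 0.79 nM. CellTiter-Glo One luminescence was normalised per plate to DMSO and cell-free wells and fitted as a four-parameter log-logistic function of log10 dose. Area under the curve was integrated by trapezoidal rule, with curves exceeding full viability scaled and curves failing quality control removed.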

[5] = tested on: SEM cells; assay: as above
Summary of the method: as §2

[6] = tested on: NOMO1; assay: as above
Summary of the method: as §2

N#CCNC(=O)c1ccc(-c2ccnc(Nc3ccc(N4CCOCC4)cc3)n2)cc1
cell viability [%]
Conditions	[1]	[2]	[3]
HPLM + 10% dialyzed FBS, 0.000781 µM	109	98.6	–
HPLM + 10% dialyzed FBS, 0.00234 µM	115	108	–
HPLM + 10% dialyzed FBS, 0.00702 µM	116	118	–
HPLM + 10% dialyzed FBS, 0.0211 µM	134	114	–
HPLM + 10% dialyzed FBS, 0.0632 µM	128	110	–
HPLM + 10% dialyzed FBS, 0.19 µM	117	110	–
HPLM + 10% dialyzed FBS, 0.569 µM	115	98.8	–
HPLM + 10% dialyzed FBS, 1.71 µM	105	111	–
HPLM + 10% dialyzed FBS, 5.12 µM	124	111	–
HPLM + 10% dialyzed FBS, 15.4 µM	87.3	77.6	–
HPLM + 10% dialyzed FBS, 46.1 µM	8.36	34	–
RPMI 5 mM glucose + 10% FBS, 0.000781 µM	88.7	97.9	98.5
RPMI 5 mM glucose + 10% FBS, 0.00234 µM	116	102	107
RPMI 5 mM glucose + 10% FBS, 0.00702 µM	101	120	122
RPMI 5 mM glucose + 10% FBS, 0.0211 µM	113	115	108
RPMI 5 mM glucose + 10% FBS, 0.0632 µM	107	111	126
RPMI 5 mM glucose + 10% FBS, 0.19 µM	106	109	116
RPMI 5 mM glucose + 10% FBS, 0.569 µM	106	95.6	103
RPMI 5 mM glucose + 10% FBS, 1.71 µM	89.5	108	107
RPMI 5 mM glucose + 10% FBS, 5.12 µM	102	102	87
RPMI 5 mM glucose + 10% FBS, 15.4 µM	86	65.6	37.9
RPMI 5 mM glucose + 10% FBS, 46.1 µM	11.3	34	13.1
RPMI 5 mM glucose + 10% dialyzed FBS, 0.000781 µM	48.6	115	91.3
RPMI 5 mM glucose + 10% dialyzed FBS, 0.00234 µM	105	103	107
RPMI 5 mM glucose + 10% dialyzed FBS, 0.00702 µM	129	109	105
RPMI 5 mM glucose + 10% dialyzed FBS, 0.0211 µM	113	113	115
RPMI 5 mM glucose + 10% dialyzed FBS, 0.0632 µM	120	109	120
RPMI 5 mM glucose + 10% dialyzed FBS, 0.19 µM	110	109	101
RPMI 5 mM glucose + 10% dialyzed FBS, 0.569 µM	99.7	99.5	91.5
RPMI 5 mM glucose + 10% dialyzed FBS, 1.71 µM	90.8	98.2	88.5
RPMI 5 mM glucose + 10% dialyzed FBS, 5.12 µM	114	97.6	65.1
RPMI 5 mM glucose + 10% dialyzed FBS, 15.4 µM	85.6	70.8	37.2
RPMI 5 mM glucose + 10% dialyzed FBS, 46.1 µM	10.8	25.3	21.6

AUC of viability dose-response curve
Conditions	HPLM + 10% dialyzed FBS	RPMI 5 mM glucose + 10% FBS	RPMI 5 mM glucose + 10% dialyzed FBS
[4]	447	442	434
[5]	405	412	394

O=C(Nc1cccc(C(F)(F)F)c1)Nc1cc([S+](=O)([O-])NC2CC2)ccc1-c1ccsc1
cell viability [%]
Conditions	[1]	[2]	[3]
HPLM + 10% dialyzed FBS, 0.000781 µM	–	127	101
HPLM + 10% dialyzed FBS, 0.00234 µM	–	109	108
HPLM + 10% dialyzed FBS, 0.00702 µM	–	115	117
HPLM + 10% dialyzed FBS, 0.0211 µM	–	111	97.1
HPLM + 10% dialyzed FBS, 0.0632 µM	–	112	110
HPLM + 10% dialyzed FBS, 0.19 µM	–	114	118
HPLM + 10% dialyzed FBS, 0.569 µM	–	110	109
HPLM + 10% dialyzed FBS, 1.71 µM	–	110	102
HPLM + 10% dialyzed FBS, 5.12 µM	–	108	113
HPLM + 10% dialyzed FBS, 15.4 µM	–	104	106
HPLM + 10% dialyzed FBS, 46.1 µM	–	76.9	61.9
RPMI 5 mM glucose + 10% FBS, 0.000781 µM	111	120	–
RPMI 5 mM glucose + 10% FBS, 0.00234 µM	99.2	118	–
RPMI 5 mM glucose + 10% FBS, 0.00702 µM	102	119	–
RPMI 5 mM glucose + 10% FBS, 0.0211 µM	105	112	–
RPMI 5 mM glucose + 10% FBS, 0.0632 µM	104	123	–
RPMI 5 mM glucose + 10% FBS, 0.19 µM	97.7	118	–
RPMI 5 mM glucose + 10% FBS, 0.569 µM	105	116	–
RPMI 5 mM glucose + 10% FBS, 1.71 µM	109	119	–
RPMI 5 mM glucose + 10% FBS, 5.12 µM	105	112	–
RPMI 5 mM glucose + 10% FBS, 15.4 µM	96	110	–
RPMI 5 mM glucose + 10% FBS, 46.1 µM	16.5	69.8	–
RPMI 5 mM glucose + 10% dialyzed FBS, 0.000781 µM	–	121	101
RPMI 5 mM glucose + 10% dialyzed FBS, 0.00234 µM	–	116	107
RPMI 5 mM glucose + 10% dialyzed FBS, 0.00702 µM	–	107	118
RPMI 5 mM glucose + 10% dialyzed FBS, 0.0211 µM	–	121	105
RPMI 5 mM glucose + 10% dialyzed FBS, 0.0632 µM	–	117	107
RPMI 5 mM glucose + 10% dialyzed FBS, 0.19 µM	–	119	111
RPMI 5 mM glucose + 10% dialyzed FBS, 0.569 µM	–	105	104
RPMI 5 mM glucose + 10% dialyzed FBS, 1.71 µM	–	94.1	83.4
RPMI 5 mM glucose + 10% dialyzed FBS, 5.12 µM	–	107	94.9
RPMI 5 mM glucose + 10% dialyzed FBS, 15.4 µM	–	103	101
RPMI 5 mM glucose + 10% dialyzed FBS, 46.1 µM	–	50.1	10.3

AUC of viability dose-response curve
Conditions	HPLM + 10% dialyzed FBS	RPMI 5 mM glucose + 10% FBS	RPMI 5 mM glucose + 10% dialyzed FBS
[4]	466	465	460
[5]	466	399	454

NC(=O)c1cccnc1
AUC of viability dose-response curve
Conditions	[4]	[5]	[6]
HPLM + 10% dialyzed FBS	451	448	438
RPMI 5 mM glucose + 10% FBS	466	449	464
RPMI 5 mM glucose + 10% dialyzed FBS	466	457	409

CC(C)OC(=O)/C1=C/N(CC(C)(C)C2=C1[NH]C3=CC=CC=C23)C(=O)C4=CC=C(F)C(=C4)F
cell viability [%]
Conditions	[1]	[2]	[3]
HPLM + 10% dialyzed FBS, 0.000781 µM	86.3	83.2	71.9
HPLM + 10% dialyzed FBS, 0.00234 µM	80.4	84.5	76
HPLM + 10% dialyzed FBS, 0.00702 µM	86	82.2	75.3
HPLM + 10% dialyzed FBS, 0.0211 µM	91.8	89.6	73.4
HPLM + 10% dialyzed FBS, 0.0632 µM	81.3	89.4	81
HPLM + 10% dialyzed FBS, 0.19 µM	89.8	83.4	68.9
HPLM + 10% dialyzed FBS, 0.569 µM	98.3	86.4	62
HPLM + 10% dialyzed FBS, 1.71 µM	98	83.9	72.9
HPLM + 10% dialyzed FBS, 5.12 µM	89.9	87.8	78.9
HPLM + 10% dialyzed FBS, 15.4 µM	85.6	91.6	59.6
HPLM + 10% dialyzed FBS, 46.1 µM	91.2	95.7	67.1
RPMI 5 mM glucose + 10% FBS, 0.000781 µM	72.7	79	76.8
RPMI 5 mM glucose + 10% FBS, 0.00234 µM	78.4	78.7	83.5
RPMI 5 mM glucose + 10% FBS, 0.00702 µM	79.7	79	88.2
RPMI 5 mM glucose + 10% FBS, 0.0211 µM	80.8	79	80.2
RPMI 5 mM glucose + 10% FBS, 0.0632 µM	89	83.4	79.8
RPMI 5 mM glucose + 10% FBS, 0.19 µM	79.4	83.9	67.7
RPMI 5 mM glucose + 10% FBS, 0.569 µM	84.3	84.9	71.1
RPMI 5 mM glucose + 10% FBS, 1.71 µM	76.4	82.9	71.8
RPMI 5 mM glucose + 10% FBS, 5.12 µM	82.7	87.2	79.6
RPMI 5 mM glucose + 10% FBS, 15.4 µM	78.2	84.1	61.8
RPMI 5 mM glucose + 10% FBS, 46.1 µM	83.5	83.8	78.6
RPMI 5 mM glucose + 10% dialyzed FBS, 0.000781 µM	74.5	75.3	72.9
RPMI 5 mM glucose + 10% dialyzed FBS, 0.00234 µM	74.8	77.3	82
RPMI 5 mM glucose + 10% dialyzed FBS, 0.00702 µM	70.6	78.1	80
RPMI 5 mM glucose + 10% dialyzed FBS, 0.0211 µM	70.8	85.2	86
RPMI 5 mM glucose + 10% dialyzed FBS, 0.0632 µM	69.4	78.5	94.9
RPMI 5 mM glucose + 10% dialyzed FBS, 0.19 µM	70.6	80.7	89
RPMI 5 mM glucose + 10% dialyzed FBS, 0.569 µM	66.6	75.9	71.5
RPMI 5 mM glucose + 10% dialyzed FBS, 1.71 µM	82	75.7	87.4
RPMI 5 mM glucose + 10% dialyzed FBS, 5.12 µM	80.5	78.4	106
RPMI 5 mM glucose + 10% dialyzed FBS, 15.4 µM	79.1	73.7	65.5
RPMI 5 mM glucose + 10% dialyzed FBS, 46.1 µM	72.5	82.4	73.1

AUC of viability dose-response curve
Conditions	HPLM + 10% dialyzed FBS	RPMI 5 mM glucose + 10% FBS	RPMI 5 mM glucose + 10% dialyzed FBS
[5]	342	364	394
[6]	424	384	351
